Assays:
calvaria = assay: Inhibitory effect on bone absorption (calcium liberation from PTH enhanced cultured calvaria); assay type: cell-based; conditions: newborn dd mouse calvaria culture, PTH 1 x 10^-8M, 96 hours, total calcium in the culture
Description: The calvaria was excised from a newborn dd mouse (5 to 6 days old) under sterile conditions. The calvaria was washed with a modified Dulbecco phosphate buffer physiological saline solution containing neither calcium nor magnesium (a product of Gibco Oriental), and divided into two parts along the center suture. A half of the calvaria was cultivated in a modified Dulbecco Eagle medium (1.5 ml) (a product of Gibco Oriental) containing 2.5% fetal calf serum and 15% equine serum which had been inactivated by heating at 56°C for 20 minutes. The test compound was dissolved in dimethyl sulfoxide and 10 µl of the resulting solution was added to the culture medium to give the final concentrations of 3 x 10^-6M, 1 x 10^-5M, and 3 x 10^-5M. PTH (parathyroid hormone) was dissolved in a 0.15 M saline solution (pH 3) and 3 µl of the resulting solution was added to the culture medium to give the final concentration of 1 x 10^-8M. The culturing was carried out under the condition of 95 % air and 5 % carbon dioxide and at a temperature of 37°C for 96 hours. At 48 hours after the start of the culturing, the culture medium was renewed and the test compound and PTH treated as defined above were added thereto. For examining the effect of the test compound on calcium liberation (bone absorption) from the PTH enhanced bone, a control group, a group using PTH (1 x 10^-8M), and a group using both the test compound (3 x 10^-6M, 1 x 10^-5M, 3 x 10^-5M) and PTH were prepared. The amount of the bone absorption was determined by measuring the amount of calcium accumulated in the culture as collected after 96 hours of culturing. The total calcium concentration in the culture was measured with Calcium C Test Wako. The inhibition rate was calculated using the following equation and the result was shown in terms of 50% inhibitory concentration (IC50). Inhibition of bone absorption from PTH enhanced bone Inhibition rate (%) = [(CP - CD )/(CP - C0 )] x 100 [formula] C0 : The total calcium concentration in the culture containing neither the test compound nor PTH. CP : The total calcium concentration in the culture treated with only PTH. CD : The total calcium concentration in the culture treated . with both the test compound and PTH.

bone density = assay: Inhibitory effect on decrease of bone density by ovariectomy; assay type: in vivo; conditions: ovariectomized female SD strain rats, 10 mg/kg orally once a day for 3 weeks, right hindlimb, DEXA (DXA) method
Description: The experiment was carried out using 10-weeks-old female SD strain rats (Charles River Japan Inc.) The ovaries on both sides of the rats were excised under anesthesia using Nembutal. The test compound (10 mg/kg) was dissolved or suspended in distilled water for injection (a product of Otsuka Pharmaceutical Co., Ltd.) and administered orally once a day from the first day after the operation for 3 weeks. For the control group, distilled water for injection alone was administered. The rat was slaughtered by neck dislocation, the right hindlimb was ablated, and then the bone density of the neck was measured according to a DEXA (DXA) method [Japan Clinic, 52 (9), 2329-2334 (1994)] using bone mineral measuring apparatus DCS-600 (a product of Aloka Co., Ltd.) The inhibition rate of decrease in the bone density of the test compound-administered group was calculated from the decrease of the bone density in the test compound-administered group and that in the control group.

| IC50 (calvaria) | Structure (SMILES) | Inhibition rate of decrease in bone density (%) (bone density) |
| --- | --- | --- |
| > 30 µM | O=C(c1[nH]c2ccccc2c1C(c1ccc(O)cc1)c1ccc(O)cc1)N1CCN(c2ccccc2Cl)CC1 [Compound 8, 1-{3-[Bis(4-hydroxyphenyl)methyl]indol-2-ylcarbonyl}-4-(2-chloroghenyl)piperazine] | – |
| 11.5 µM | CN(C)CCn1c(C(=O)N2CCN(c3ccccc3Cl)CC2)c(C(c2ccc(O)cc2)c2ccc(O)cc2)c2ccccc21.CS(=O)(=O)O [Compound 9, 1-{3-[Bis(4-hydroxyphenyl)methyl]-1-(2-dimethylaminoethyl)indol-2-ylcarbonyl}-4-(2-chlorophenyl)piperazine methanesulfonate] | 97% |
| 9.6 µM | CS(=O)(=O)O.O=C(c1c(C(c2ccc(O)cc2)c2ccc(O)cc2)c2ccccc2n1CCN1CCOCC1)N1CCN(c2ccccc2Cl)CC1 [Compound 10, 1-{3-[Bis(4-hydroxyphenyl)methyl]-1-(2-morpholinoethyl)indol-2-ylcarbonyl}-4-(2-chlorophenyl)-piperazine methanesulfonate] | 33% |
| > 30 µM | CCCNC(=O)c1c(C(c2ccc(O)cc2)c2ccc(O)cc2)c2ccccc2n1CCN(C)C [Compound 11, N-Propyl-3-[bis(4-hydroxyphenyl)methyl]-1-(2-dimethylaminoethyl)indole-2-carboxamide methanesulfonate] | – |
| > 30 µM | CC(C)NC(=O)c1c(C(c2ccc(O)cc2)c2ccc(O)cc2)c2ccccc2n1CCN(C)C [Compound 12, N-Isopropyl-3-[bis(4-hydroxyphenyl)methyl]-1-(2-dimethylaminoethyl)indole-2-carboxamide methanesulfonate] | – |
| 15 µM | CN(C)CCn1c(C(=O)N2CCCCC2)c(C(c2ccc(O)cc2)c2ccc(O)cc2)c2ccccc21 [Compound 13, 1-{3-[Bis(4-hydroxyphenyl)methyl]-1-(2-dimethylaminoethyl)indol-2-ylcarbonyl)piperidine methanesulfonate] | – |
| 11.9 µM | CN(C)CCn1c(C(=O)NC2CCCCCC2)c(C(c2ccc(O)cc2)c2ccc(O)cc2)c2ccccc21 [Compound 14, N-Cycloheptyl-3-[bis (4-hydroxyphenyl)methyl]-1-(2-dimethylaminoethyl)indole-2-carboxamide methanesulfonate] | – |
